Measured values as given in patent US20240158348A1, “HERBICIDAL CYCLIC AMIDES N-SUBSTITUTED WITH A HALOALKYLSULFONYLANILIDE GROUP” (FMC Corporation, priority 2021, published 2024).

Experiments:
corn (Zea mays) [1] = test: Test C preemergence, corn; type: in vivo; conditions: 0 is no effect, 100 is complete control
In short: (§1)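 Visual injury rating, 0 (no effect) to 100 (complete control), versus untreated controls after 10 or 12 days in the greenhouse. Compounds were formulated in non-phytotoxic solvent plus surfactant and applied either as a directed soil spray at sowing or onto emerged one- to two-leaf plants.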

[2] = test system: foxtail, giant (giant foxtail, Setaria faberi); test: Test C preemergence, giant foxtail; type: in vivo; conditions: 0 is no effect, 100 is complete control
In short: (§2)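 Ratings run from 0, meaning no effect, up to 100, meaning complete control, judged by eye against untreated plants. Treatment was a directed soil spray before emergence or a postemergence spray on 2–10 cm seedlings, with evaluation 10 or 12 days later.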

[3] = test system: goosegrass (Eleusine indica); test: Test C preemergence, goosegrass; type: in vivo; conditions: 0 is no effect, 100 is complete control
In short: as §1

kochia (Bassia scoparia) [4] = test: Test C preemergence, kochia; type: in vivo; conditions: 0 is no effect, 100 is complete control
In short: as §2

[5] = test system: oat, wild (wild oat, Avena fatua); test: Test C preemergence, wild oat; type: in vivo; conditions: 0 is no effect, 100 is complete control
In short: as §2

[6] = test system: pigweed, palmer (palmer amaranth, Amaranthus palmeri); test: Test C preemergence, palmer amaranth; type: in vivo; conditions: 0 is no effect, 100 is complete control
In short: as §2

[7] = test system: ragweed (common ragweed, Ambrosia artemisiifolia); test: Test C preemergence, ragweed; type: in vivo; conditions: 0 is no effect, 100 is complete control
In short: as §1

[8] = test system: ryegrass, Italian (Italian ryegrass, Lolium multiflorum); test: Test C preemergence, Italian ryegrass; type: in vivo; conditions: 0 is no effect, 100 is complete control
In short: as §2

soybean (Glycine max) [9] = test: Test C preemergence, soybean; type: in vivo; conditions: 0 is no effect, 100 is complete control
In short: as §2

[10] = test system: wheat (Triticum aestivum); test: Test C preemergence, wheat; type: in vivo; conditions: 0 is no effect, 100 is complete control
[11] = test system: blackgrass (Alopecurus myosuroides); test: Test C postemergence, blackgrass; type: in vivo; conditions: 31 g ai/ha Postemergence; visual injury, 0 to 100 scale (0 no effect, 100 complete control)
In short: as §2

corn (Zea mays) [12] = test: Test C postemergence, corn; type: in vivo
[13] = test system: foxtail, giant (giant foxtail, Setaria faberi); test: Test C postemergence, giant foxtail; type: in vivo
[14] = test system: goosegrass (Eleusine indica); test: Test C postemergence, goosegrass; type: in vivo
In short: as §2

kochia (Bassia scoparia) [15] = test: Test C postemergence, kochia; type: in vivo
In short: as §2

[16] = test system: oat, wild (wild oat, Avena fatua); test: Test C postemergence, wild oat; type: in vivo
[17] = test system: pigweed, palmer (palmer amaranth, Amaranthus palmeri); test: Test C postemergence, palmer amaranth; type: in vivo
In short: as §2

[18] = test system: ragweed (common ragweed, Ambrosia artemisiifolia); test: Test C postemergence, ragweed; type: in vivo
In short: as §2

[19] = test system: ryegrass, Italian (Italian ryegrass, Lolium multiflorum); test: Test C postemergence, Italian ryegrass; type: in vivo
In short: as §2

soybean (Glycine max) [20] = test: Test C postemergence, soybean; type: in vivo
[21] = test system: wheat (Triticum aestivum); test: Test C postemergence, wheat; type: in vivo
In short: as §2

[22] = test system: galium (catchweed bedstraw, Galium aparine); test: Test C postemergence, galium; type: in vivo
[23] = test system: horseweed (Erigeron canadensis); test: Test C postemergence, horseweed; type: in vivo
In short: as §2

[24] = test system: barnyardgrass (Echinochloa crusgalli); test: Test D flooded paddy test, barnyardgrass; type: in vivo; parameters: key: 0 = no effect, 100 = complete control; conditions: 250 g ai/ha, Flood; applied to paddy water at 2-leaf stage; visual rating after 13 days; scale 0 (no effect) to 100 (complete control)
In short: (§3)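 Under 3 cm of standing water, kept constant after treatment, 2-leaf plants received compound via the paddy water. Ratings on a 0–100 control scale were assigned visually after 13 greenhouse days; a dash denotes no test result.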

[25] = test system: ducksalad (Heteranthera limosa); test: Test D flooded paddy test, ducksalad; type: in vivo; parameters: key: 0 = no effect, 100 = complete control; conditions: 250 g ai/ha, Flood; applied to paddy water at 2-leaf stage; visual rating after 13 days; scale 0 (no effect) to 100 (complete control)
In short: as §3

rice (Oryza sativa) = test: Test D flooded paddy test, rice; type: in vivo; parameters: key: 0 = no effect, 100 = complete control; conditions: 250 g ai/ha, Flood; applied to paddy water at 2-leaf stage; visual rating after 13 days; scale 0 (no effect) to 100 (complete control)
In short: as §3

[26] = test system: sedge, umbrella (small-flower umbrella sedge, Cyperus difformis); test: Test D flooded paddy test, umbrella sedge; type: in vivo; parameters: key: 0 = no effect, 100 = complete control; conditions: 250 g ai/ha, Flood; applied to paddy water at 2-leaf stage; visual rating after 13 days; scale 0 (no effect) to 100 (complete control)
In short: as §3

[27] = test system: blackgrass (Alopecurus myosuroides); test: Test C postemergence, blackgrass; type: in vivo; conditions: 125 g ai/ha Postemergence; 0 is no effect, 100 is complete control
[28] = 31 g ai/ha Postemergence, visual injury, 0 to 100 scale (0 no effect, 100 complete control)
[29] = 125 g ai/ha Postemergence, 0 is no effect, 100 is complete control

- melting point: 226 to 229 °C
SMILES: CO/N=C1\CCN(c2cc(NS(=O)(=O)C(F)(F)F)c(C)cc2C)C1=O [Compound 9, 1,1,1-trifluoro-N-[5-[3-(methoxyimino)-2-oxo-1-pyrrolidinyl]-2,4-dimethylphenyl]methanesulfonamide]
- Plant response rating (0 to 100 scale), Corn (corn (Zea mays) [1]; 31 g ai/ha Preemergence): 50
- Plant response rating (0 to 100 scale), Corn (corn (Zea mays) [1]; 125 g ai/ha Preemergence): 100
- Plant response rating (0 to 100 scale), Foxtail, Giant ([2]; 31 g ai/ha Preemergence): 100
- Plant response rating (0 to 100 scale), Foxtail, Giant ([2]; 125 g ai/ha Preemergence): 100
- Plant response rating (0 to 100 scale), Goosegrass ([3]; 31 g ai/ha Preemergence): 100
- Plant response rating (0 to 100 scale), Goosegrass ([3]; 125 g ai/ha Preemergence): 100
- Plant response rating (0 to 100 scale), Kochia (kochia (Bassia scoparia) [4]; 31 g ai/ha Preemergence): 100
- Plant response rating (0 to 100 scale), Kochia (kochia (Bassia scoparia) [4]; 125 g ai/ha Preemergence): 100
- Plant response rating (0 to 100 scale), Oat, Wild ([5]; 31 g ai/ha Preemergence): 90
- Plant response rating (0 to 100 scale), Oat, Wild ([5]; 125 g ai/ha Preemergence): 100
- Plant response rating (0 to 100 scale), Pigweed, Palmer ([6]; 31 g ai/ha Preemergence): 100
- Plant response rating (0 to 100 scale), Pigweed, Palmer ([6]; 125 g ai/ha Preemergence): 100
- Plant response rating (0 to 100 scale), Ragweed ([7]; 31 g ai/ha Preemergence): 50
- Plant response rating (0 to 100 scale), Ragweed ([7]; 125 g ai/ha Preemergence): 90
- Plant response rating (0 to 100 scale), Ryegrass, Italian ([8]; 31 g ai/ha Preemergence): 60
- Plant response rating (0 to 100 scale), Ryegrass, Italian ([8]; 125 g ai/ha Preemergence): 100
- Plant response rating (0 to 100 scale), Soybean (soybean (Glycine max) [9]; 31 g ai/ha Preemergence): 80
- Plant response rating (0 to 100 scale), Soybean (soybean (Glycine max) [9]; 125 g ai/ha Preemergence): 100
- Plant response rating (0 to 100 scale), Wheat ([10]; 31 g ai/ha Preemergence): 90
- Plant response rating (0 to 100 scale), Wheat ([10]; 125 g ai/ha Preemergence): 100
- Blackgrass plant response rating [11]: 80
- Corn plant response rating (corn (Zea mays) [12]; [28]): 90
- Plant response rating (0 to 100 scale), Corn (corn (Zea mays) [12]; [29]): 90
- Foxtail, Giant plant response rating [13, 28]: 40
- Plant response rating (0 to 100 scale), Foxtail, Giant [13, 29]: 90
- Goosegrass plant response rating [14, 28]: 90
- Plant response rating (0 to 100 scale), Goosegrass [14, 29]: 90
- Kochia plant response rating (kochia (Bassia scoparia) [15]; [28]): 80
- Plant response rating (0 to 100 scale), Kochia (kochia (Bassia scoparia) [15]; [29]): 90
- Oat, Wild plant response rating [16, 28]: 80
- Plant response rating (0 to 100 scale), Oat, Wild [16, 29]: 80
- Pigweed, Palmer plant response rating [17, 28]: 70
- Plant response rating (0 to 100 scale), Pigweed, Palmer [17, 29]: 90
- Ragweed plant response rating [18, 28]: 70
- Plant response rating (0 to 100 scale), Ragweed [18, 29]: 80
- Ryegrass, Italian plant response rating [19, 28]: 50
- Plant response rating (0 to 100 scale), Ryegrass, Italian [19, 29]: 80
- Soybean plant response rating (soybean (Glycine max) [20]; [28]): 80
- Plant response rating (0 to 100 scale), Soybean (soybean (Glycine max) [20]; [29]): 80
- Wheat plant response rating [21, 28]: 80
- Plant response rating (0 to 100 scale), Wheat [21, 29]: 80
- Galium plant response rating [22, 28]: 90
- Plant response rating (0 to 100 scale), Galium [22, 29]: 100
- Horseweed plant response rating [23, 28]: 100
- Plant response rating (0 to 100 scale), Horseweed [23, 29]: 100
- Plant response rating, Barnyardgrass [24]: 10
- Plant response rating, Ducksalad [25]: 95
- Plant response rating, Rice (rice (Oryza sativa)): 30
- Plant response rating, Sedge, Umbrella [26]: 85
- Plant response rating (0 to 100 scale), Blackgrass [27]: 90
